Test results as given in patent US20100204265A1 (priority 2009, published 2010).

The molecules below were run on ET (Huh-lucubineo-ET) cell line harboring I389luc-ubi-neo/NS3-3′/ET HCV replicon (assay: Replicon assay (HCV replicon, luciferase readout)). Settings: Hepatitis C virus.
Assay type: cell-based
Method: A cell line, ET (Huh-lucubineo-ET) is used for screening of compounds for inhibiting HCV RNA dependent RNA polymerase. The ET cell line is stably transfected with RNA transcripts harboring a I389luc-ubi-neo/NS3-3′/ET; replicon with firefly luciferase-ubiquitin-neomycin phosphotransferase fusion protein and EMCV-IRES driven NS3-5B polyprotein containing the cell culture adaptive mutations (E1202G; T1280I; K1846T) (Krieger at al, 2001 and unpublished). The ET cells are grown in DMEM (Dulbeco's Modified Eagle's Medium), supplemented with 10% fetal calf serum, 2 mM Glutamine, Penicillin (100 IU/mL)/Streptomycin (100 μg/mL), 1× nonessential amino acids, and 250 μg/mL G418 (“Geneticin”). They are all available through Life Technologies (Bethesda, Md.). The cells are plated at 0.5−1.0×10^4 cells/well in the 96 well plates and incubated for 24 hrs before adding test compound. The compounds are added to the cells to achieve a final concentration of 0.1 nM to […] and a final DMSO (dimethylsulfoxide) concentration of 0.5%. Luciferase activity is measured 48-72 hours later by adding a lysis buffer and the substrate (Catalog number Glo-lysis buffer E2661 and Bright-Glo luciferase system E2620 Promega, Madison, Wis.). Cells should not be too confluent during the assay. Percent inhibition of replication data is plotted relative to no compound control. Under the same condition, cytotoxicity of the compounds are determined using cell proliferation reagent, WST-1 (Roche, Germany). The compounds showing antiviral activities, but no significant cytotoxicities are chosen to determine EC50 and TC50. For these determinations, a 10 point, 2-fold serial dilution for each compound was used, which spans a concentration range of 1000 fold. EC50 and similarly TC50 values were calculated by fitting % inhibition at each concentration to the following equation:
% inhibition=100%/[(EC50/[I])^b+1]
where b is Hill's coefficient.

Question: `O=C(c1nc2c(C(F)(F)F)cc(-c3cn[nH]c3)cn2c1Cl)N1CC=C(C2=CCNCC2)C1` [Compound 136, [3-Chloro-6-(1H-pyrazol-4-yl)-8-trifluoromethyl-imidazo[1,2-a]pyridin-2-yl]-[3-(1,2,3,6-tetrahydro-pyridin-4-yl)-2,5-dihydro-pyrrol-1-yl]-methanone] was tested. Which EC50 did it give?
Answer: 5.37 µM

Question: `O=C(c1nc2c(C(F)(F)F)cc(-c3ccoc3)cn2c1Cl)N1CC=C(C2=CCNC2)CC1` [Compound 213, (3-Chloro-6-furan-3-yl-8-trifluoromethyl-imidazo[1,2-a]pyridin-2-yl)-[4-(2,5-dihydro-1H-pyrrol-3-yl)-3,6-dihydro-2H-pyridin-1-yl]-methanone] was tested. Which EC50 did it give?
Answer: 0.942 µM

Question: With `O=C(Cc1cn2cc(-c3ccoc3)cc(C(F)(F)F)c2n1)N1CCN(c2nccs2)CC1` [Compound 109, 2-(6-Furan-3-yl-8-trifluoromethyl-imidazo[1,2-a]pyridin-2-yl)-1-(4-thiazol-2-yl-piperazin-1-yl)-ethanone] as the molecule, how does the EC50 read?
Answer: > 50 µM

Question: With `CS(=O)(=O)N1CCCN(C(=O)c2nc3c(C(F)(F)F)cc(-c4ccoc4)cn3c2Cl)CC1` [Compound 326, (3-Chloro-6-furan-3-yl-8-trifluoromethyl-imidazo[1,2-a]pyridin-2-yl)-(4-methanesulfonyl-[1,4]diazepan-1-yl)-methanone] as the molecule, how does the EC50 read?
Answer: 11.4 µM

Question: With `O=C(c1nc2c(C(F)(F)F)cc(-c3ccoc3)cn2c1CO)N1CC=C(c2ncccc2F)CC1` [Compound 171, (3-Fluoro-3′,6′-dihydro-2′H-[2,4′]bipyridinyl-1′-yl)-(6-furan-3-yl-3-hydroxymethyl-8-trifluoromethyl-imidazo[1,2-a]pyridin-2-yl)-methanone] as the molecule, how does the EC50 read?
Answer: 1.41 µM

Question: Which EC50 does the source give for `NC(=O)C(CO)NC(=O)c1cn2cc(-c3ccoc3)cc(C(F)(F)F)c2n1` (centres unmarked) [Compound 279, 6-Furan-3-yl-8-trifluoromethyl-imidazo[1,2-a]pyridine-2-carboxylic acid (1-carbamoyl-2-hydroxy-ethyl)-amide] here?
Answer: > 50 µM

Question: For `O=C(c1nc2c(C(F)(F)F)cc(-c3cccnc3)cn2c1Cl)N1CC=C(c2nccs2)C1` [Compound 216, (3-Chloro-6-pyridin-3-yl-8-trifluoromethyl-imidazo[1,2-a]pyridin-2-yl)-(3-thiazol-2-yl-2,5-dihydro-pyrrol-1-yl)-methanone], which EC50 is on record?
Answer: 0.111 µM

Question: For `COC(=O)C(CCSC)NC(=O)c1cn2cc(-c3ccoc3)cc(C(F)(F)F)c2n1` (centres unmarked) [Compound 251, 2-[(6-Furan-3-yl-8-trifluoromethyl-imidazo[1,2-a]pyridine-2-carbonyl)-amino]-4-methylsulfanyl-butyric acid methyl ester], which EC50 is on record?
Answer: > 50 µM

Question: How did the EC50 turn out when `COC(=O)C(NC(=O)Cc1cn2cc(-c3ccoc3)cc(C(F)(F)F)c2n1)C(C)O` (centres unmarked) [Compound 305, 2-[2-(6-Furan-3-yl-8-trifluoromethyl-imidazo[1,2-a]pyridin-2-yl)-acetylamino]-3-hydroxy-butyric acid methyl ester] was run?
Answer: > 50 µM

Question: `CSCCC(NC(=O)c1cn2cc(-c3ccoc3)cc(C(F)(F)F)c2n1)C(=O)O` (centres unmarked) [Compound 266, 2-[(6-Furan-3-yl-8-trifluoromethyl-imidazo[1,2-a]pyridine-2-carbonyl)-amino]-4-methylsulfanyl-butyric acid] was tested. Which EC50 did it give?
Answer: > 50 µM

Question: How did the EC50 turn out when `FC(F)(F)c1cc(-c2ccoc2)cn2cc(Cn3cnc(-c4ccccc4)c3)nc12` [Compound 228, 6-Furan-3-yl-2-(4-phenyl-imidazol-1-ylmethyl)-8-trifluoromethyl-imidazo[1,2-a]pyridine] was run?
Answer: > 50 µM

Question: `FC(F)(F)c1cc(-c2ccoc2)cn2cc(CN3CC=C(c4nccs4)C3)nc12` [Compound 163, 6-Furan-3-yl-2-(3-thiazol-2-yl-2,5-dihydro-pyrrol-1-ylmethyl)-8-trifluoromethyl-imidazo[1,2-a]pyridine] was tested. Which EC50 did it give?
Answer: 42.4 µM

Question: How did the EC50 turn out when `NC(=O)C1CCCN1C(=O)c1cn2cc(-c3ccoc3)cc(C(F)(F)F)c2n1` (centres unmarked) [Compound 280, 1-(6-Furan-3-yl-8-trifluoromethyl-imidazo[1,2-a]pyridine-2-carbonyl)-pyrrolidine-2-carboxylic acid amide] was run?
Answer: > 50 µM

Question: `O=C1NC(=O)C2(CCN(C(=O)c3nc4c(C(F)(F)F)cc(-c5ccoc5)cn4c3Cl)CC2)N1` [Compound 330, 8-(3-Chloro-6-furan-3-yl-8-trifluoromethyl-imidazo[1,2-a]pyridine-2-carbonyl)-1,3,8-triaza-spiro[4.5]decane-2,4-dione] was tested. Which EC50 did it give?
Answer: > 50 µM

Question: With `O=C(c1nc2c(C(F)(F)F)cc(-c3c[nH]cn3)cn2c1Cl)N1CC=C(c2ncccc2F)CC1` [Compound 122, [3-Chloro-6-(1H-imidazol-4-yl)-8-trifluoromethyl-imidazo[1,2-a]pyridin-2-yl]-(3-fluoro-3′,6′-dihydro-2′H-[2,4′]bipyridinyl-1′-yl)-methanone] as the molecule, how does the EC50 read?
Answer: 5.89 µM

Question: With `O=C(c1cc2nc(-c3cccs3)cc(C(F)(F)F)c2[nH]1)N1CC=C(c2ncccc2F)CC1` [Compound 117, (3-Fluoro-3′,6′-dihydro-2′H-[2,4′]bipyridinyl-1′-yl)-(5-thiophen-2-yl-7-trifluoromethyl-1H-pyrrolo[3,2-b]pyridin-2-yl)-methanone] as the molecule, how does the EC50 read?
Answer: 23.9 µM

Question: Which EC50 does the source give for `CS(=O)(=O)NC1CCN(C(=O)c2nc3c(C(F)(F)F)cc(-c4ccoc4)cn3c2Cl)CC1` [Compound 322, N-[1-(3-Chloro-6-furan-3-yl-8-trifluoromethyl-imidazo[1,2-a]pyridine-2-carbonyl)-piperidin-4-yl]-methanesulfonamide] here?
Answer: 0.266 µM

Question: How did the EC50 turn out when `O=C(c1nc2c(C(F)(F)F)cc(-c3ccccc3)cn2c1Cl)N1CC=C(c2nccs2)C1` [Compound 215, (3-Chloro-6-phenyl-8-trifluoromethyl-imidazo[1,2-a]pyridin-2-yl)-(3-thiazol-2-yl-2,5-dihydro-pyrrol-1-yl)-methanone] was run?
Answer: 0.0322 µM

Question: `O=C(c1nc2c(C(F)(F)F)cc(-c3ccoc3)cn2c1Cl)N1CC[C@@H](NC(=O)C(F)(F)F)C1` [Compound 162, N-[1-(3-Chloro-6-furan-3-yl-8-trifluoromethyl-imidazo[1,2-a]pyridine-2-carbonyl)-pyrrohdin-3-yl]-2,2,2-trifluoro-acetamide] was tested. Which EC50 did it give?
Answer: 43.5 µM

Question: For `O=C(c1nc2c(C(F)(F)F)cc(-c3ccoc3)cn2c1Cl)N1CCC(c2ncccc2F)CC1` [Compound 219, (3-Chloro-6-furan-3-yl-8-trifluoromethyl-imidazo[1,2-a]pyridin-2-yl)-(3-fluoro-3′,4′,5′,6′-tetrahydro-2′H-[2,4′]bipyridinyl-1′-yl)-methanone], which EC50 is on record?
Answer: 0.0651 µM

Question: How did the EC50 turn out when `FC(F)(F)c1cc(-c2ccoc2)cn2cc(Cc3nc(COc4ccccc4)no3)nc12` [Compound 231, 6-Furan-3-yl-2-(3-phenoxymethyl-[1,2,4]oxadiazol-5-ylmethyl)-8-trifluoromethyl-imidazo[1,2-a]pyridine] was run?
Answer: > 50 µM

Question: Which EC50 does the source give for `CC(NC(=O)c1cn2cc(-c3ccoc3)cc(C(F)(F)F)c2n1)C(=O)O` (centres unmarked) [Compound 265, 2-[(6-Furan-3-yl-8-trifluoromethyl-imidazo[1,2-a]pyridine-2-carbonyl)-amino]-propionic acid] here?
Answer: > 50 µM

Question: For `O=C(c1nc2c(C(F)(F)F)cc(-c3cn[nH]c3)cn2c1Cl)N1CC=C(c2cnoc2)C1` [Compound 133, [3-Chloro-6-(1H-pyrazol-4-yl)-8-trifluoromethyl-imidazo[1,2-a]pyridin-2-yl]-(3-isoxazol-4-yl-2,5-dihydro-pyrrol-1-yl)-methanone], which EC50 is on record?
Answer: 3.47 µM
